Assay [1] relates to μ-opioid receptor. Nature of the assay: μ-opioid receptor binding, brain homogenate, versus [3H]DAMGO. Set-up: species or system rat. Conditions: ratio of Ki values. The method, then: (§1) The receptor-binding affinities of synthetic analogs were determined using rat brain, as previously reported. […] The GPI tissue contains predominantly μ-receptors, while MVD tissue contains δ-receptors. […] In contrast, 11 was devoid of activity in both assays, as expected from the binding data. […] This analog turned out to be a potent μ-antagonist and a weak δ-antagonist. […] The results of 13 are in line with observations that Dmt-D-Phe-NH2 and its C-terminally extended analog are μ-receptor antagonists.
Two methyl groups on Dmp^4 may interfere with the receptor interaction due to a reduction in conformational flexibility and/or enhanced lipophilicity. To further examine the usefulness of Dmp-containing DYN peptides as κ-opioid receptor ligands, the in vitro bioactivity of DYN peptides was determined using the GPI assay (Table 5).

The subject of assay [2] is GPI (μ): guinea pig ileum, predominantly μ-receptors. Nature of the assay: isolated guinea pig ileum (GPI) assay. Format: cell-based. Conditions: ratio of IC50 values. The protocol: as §1
The target in assay [3] is μ-opioid receptor. Conditions: cited from earlier work; for Ki: versus [3H]DAMGO, read-out: Receptor binding affinity, Ki ± S.E., μ.
The target in a further assay is δ-opioid receptor. To be noted: cited from earlier work; for Ki: versus [3H]DT, read-out: Receptor binding affinity, Ki ± S.E., δ; for μ/δ: ratio of Ki values.
In assay [4] the test system is GPI (μ): guinea pig ileum, predominantly μ-receptors. Conditions: cited from earlier work; for MVD/GPI: ratio of IC50 values.
Assay [5] addresses MVD (δ): mouse vas deferens, δ-receptors. To be noted: cited from earlier work; for GPI/MVD: ratio of IC50 values.

The term Ki denotes a measure of affinity in units of concentration, obtained from inhibition or displacement. By IC50 is commonly meant the midpoint of a concentration-inhibition curve.

Where two headings read alike, the source gives them in different places.

“Tyr-D-Ala-Phe-Gly-Tyr-Pro-Ser-NH2 [DM, reference compound]”: the δ/μ with μ-opioid receptor [1] (Table 1) is 2087. Moreover, the MVD/GPI in assay [2] (Table 1) amounted to 9.2. Also, the Ki on μ-opioid receptor [3] (Table 1, rat brain) is 0.092 ± 0.024 nM; at δ-opioid receptor (Table 1, rat brain), 192 ± 51 nM. In addition, the 50% inhibitory concentration (IC50) was 3.74 ± 0.57 nM in assay [4] (Table 1) and 34.4 ± 4.8 nM in assay [5] (Table 1).
As for “Tyr-Gly-Gly-Phe-Leu [ENK, reference compound]”, the IC50 was 103 ± 30 nM in assay [4] (Table 1), 103 ± 30 nM in assay [4] (Table 6), 22.2 ± 4.3 nM in assay [5] (Table 1) and 22.2 ± 4.3 nM in assay [5] (Table 6).
For the substance [D-Dmp^1]EM2 [compound 39], the δ/μ in the assay on μ-opioid receptor [1] (Table 6) is given as 241. Further, the figures for the Ki on μ-opioid receptor [3] (Table 6) and at δ-opioid receptor (Table 6) were 40.4 ± 2.6 nM and 9710 ± 3820 nM, respectively. Besides, the results for the IC50 in assay [4] (Table 6) and in assay [5] (Table 6) were 1390 ± 221 nM and 2330 ± 943 nM, respectively.
In the case of [D-Dmp^1]YRFB [compound 41], the δ/μ in the assay on μ-opioid receptor [1] (Table 6) is greater than 370. The MVD/GPI in assay [2] (Table 6) turned out to be 4.6. Moreover, the Ki is 7.62 ± 1.75 nM at μ-opioid receptor [3] (Table 6) and greater than 2820 nM on δ-opioid receptor (Table 6). The results for the concentration for half-maximal inhibition (IC50) in assay [4] (Table 6) and in assay [5] (Table 6) were 320 ± 30 nM and 1470 ± 283 nM, respectively.
In the case of [D-Dmp^3]DM [compound 19], the δ/μ in the assay on μ-opioid receptor [1] (Table 1) was 745. Moreover, the MVD/GPI in assay [2] (Table 1) came to 8.1. Besides, the Ki on μ-opioid receptor [3] (Table 1, rat brain) is 4.43 ± 1.85 nM; on δ-opioid receptor (Table 1, rat brain), 3300 ± 702 nM. Also, the IC50 in assay [4] (Table 1) is 44.4 ± 6.1 nM; in assay [5] (Table 1), 358 ± 45 nM.
For the substance [D-Dmp^3]EM2 [compound 15], in the assay on μ-opioid receptor [1] (Table 1), the δ/μ was 1737. Moreover, the MVD/GPI in assay [2] (Table 1) worked out at 6.15. Moreover, the inhibition constant Ki is 2.4 ± 0.56 nM on μ-opioid receptor [3] (Table 1, rat brain) and 4170 ± 954 nM at δ-opioid receptor (Table 1, rat brain). Also, the results for the IC50 in assay [4] (Table 1) and in assay [5] (Table 1) were 30.4 ± 2.8 nM and 187 ± 30 nM, respectively.
For [D-Dmp^3]YRFB [compound 23], in the assay on μ-opioid receptor [1] (Table 1), the δ/μ is recorded as greater than 45679. For the same substance, the MVD/GPI in assay [2] (Table 1) is on record as 15.4. The Ki was 0.0618 ± 0.0109 nM on μ-opioid receptor [3] (Table 1, rat brain) and greater than 2820 nM on δ-opioid receptor (Table 1, rat brain). The IC50 is 19.8 ± 1.9 nM in assay [4] (Table 1) and 305 ± 53 nM in assay [5] (Table 1).
For the substance [D-Dmp^l]DT [compound 35], the Ki at μ-opioid receptor [3] (Table 6) was greater than 2180 nM; at δ-opioid receptor (Table 6), 1390 ± 495 nM. Further, the 50% inhibitory concentration (IC50) is greater than 10000 nM in assay [4] (Table 6) and 662 ± 147 nM in assay [5] (Table 6).
As for [Dmp^3]DM [compound 18], the δ/μ with μ-opioid receptor [1] (Table 1) is reported as 84630. The MVD/GPI in assay [2] (Table 1) is on record as 3.8. In addition, the Ki at δ-opioid receptor (Table 1, rat brain) was 45.7 ± 11.8 nM. The half-maximal inhibitory concentration (IC50) in assay [4] (Table 1) was 1.21 ± 0.23 nM; in assay [5] (Table 1) it was 4.62 ± 0.82 nM.
In the case of [Dmp^3]DT [compound 20], the Ki is 1100 ± 111 nM at μ-opioid receptor [3] (Table 1, rat brain) and 0.00105 ± 0.00043 nM at δ-opioid receptor (Table 1, rat brain). For the same substance, the results for the concentration for half-maximal inhibition (IC50) in assay [4] (Table 1) and in assay [5] (Table 1) were 6700 ± 992 nM and 0.022 ± 0.003 nM, respectively.
Consider [Dmp^3]EM2 [compound 14], for which the δ/μ in the assay with μ-opioid receptor [1] (Table 1) stood at 34967. The MVD/GPI in assay [2] (Table 1) is recorded as 3.68. Moreover, the Ki on μ-opioid receptor [3] (Table 1, rat brain) is 0.0304 ± 0.0208 nM; on δ-opioid receptor (Table 1, rat brain) it was 1060 ± 336 nM. Moreover, the IC50 in assay [4] (Table 1) was 0.378 ± 0.104 nM.
Take [Dmt^1]EM2 [reference compound]: the inhibition constant (Ki) at μ-opioid receptor [3] (Table 6, footnote d) is 0.15 ± 0.04 nM. Also, the concentration for half-maximal inhibition (IC50) in assay [4] (Table 6, footnote d) is 0.07 ± 0.02 nM; in assay [5] (Table 6, footnote d), 1.87 ± 0.61 nM. Besides, the MVD/GPI in assay [4] (Table 6, footnote d) is 26.7.
Turning to [Dmt^1]ENK [reference compound], the inhibition constant (Ki) on μ-opioid receptor [3] (Table 1, footnote c) is 0.0068 ± 0.003 nM; on μ-opioid receptor [3] (Table 6, footnote c), 0.0068 ± 0.003 nM; at δ-opioid receptor (Table 1, footnote c), 0.031 ± 0.011 nM; on δ-opioid receptor (Table 6, footnote c) it was 0.031 ± 0.011 nM. The μ/δ in the assay with δ-opioid receptor (Table 1, footnote c) is recorded as 0.22; in the assay on δ-opioid receptor (Table 6, footnote c) it was 0.22. The half-maximal inhibitory concentration (IC50) in assay [4] (Table 1, footnote c) is 0.55 ± 0.17 nM; in assay [4] (Table 6, footnote c), 0.55 ± 0.17 nM; in assay [5] (Table 1, footnote c), 0.17 ± 0.02 nM; in assay [5] (Table 6, footnote c), 0.17 ± 0.02 nM. Moreover, the GPI/MVD in assay [5] (Table 1, footnote c) was 3.24; in assay [5] (Table 6, footnote c) it was 3.24.
On to [Dmt^1]YRFB [reference compound], for which the δ/μ with μ-opioid receptor [3] (Table 6, footnote c, ratio of Ki values) was 551. Moreover, the inhibition constant (Ki) at μ-opioid receptor [3] (Table 6, footnote c) was 0.00205 ± 0.00069 nM; on δ-opioid receptor (Table 6, footnote c), 1.13 ± 0.13 nM. In addition, the IC50 in assay [4] (Table 6, footnote c) was 0.034 ± 0.065 nM; in assay [5] (Table 6, footnote c) it was 0.398 ± 0.085 nM. Besides, in assay [4] (Table 6, footnote c), the MVD/GPI was 11.7. Moreover, the “Ke of CTAP against the peptide, GPI” value in assay [4] (antagonist CTAP (μ), GPI assay) was 85.5 nM. Besides, the “Ke of CTAP against the peptide, MVD” value in assay [5] (antagonist CTAP (μ), MVD assay) is recorded as 7.89 nM. Moreover, the “Ke of N,N(Me)2Dmt-Tic-OH against the peptide, MVD” value in assay [5] (antagonist N,N(Me)2Dmt-Tic-OH (δ), MVD assay) is reported as 192 nM.
Turning to [Phe^1]DT [compound 37], the Ki on μ-opioid receptor [3] (Table 6) is greater than 2180 nM; on δ-opioid receptor (Table 6), 2.68 ± 1.22 nM. Besides, the half-maximal inhibitory concentration (IC50) in assay [4] (Table 6) is greater than 10000 nM; in assay [5] (Table 6), 10.4 ± 1.5 nM.

Source of the values: publication PMC4412257, “2′,6′-Dimethylphenylalanine: A Useful Aromatic Amino Acid Surrogate for Tyr or Phe Residue in Opioid Peptides” (International Journal of Medicinal Chemistry, 2012).
